This is an account of results in patent US11872262B2, “Means and methods for treating bacterial infections” (VIB VZW, priority 2017, dated 2024).

Residues, ends and D or L forms follow the SMILES beside them.

Data set [1] can be described thus: Solubility of peptide after ultracentrifugation. Conditions: 30 min after dissolving. The class given is physicochemical. The method, then: FIG. 1: Activity, cytotoxicity and aggregation of antibacterial aggregating peptides. (A) Time-killing curve of selected peptides against E. coli strain O157 treated at MIC concentration (average and s.d. of 3 replicates). (B, C, D) Transmission electron microcopy (TEM) of cross-sections of E. coli O157 embedded in resin. B is mock treated, C is P2- and D is P105-treated E. coli O157 (2 h). […] (F) Concentration-dependent hemolysis of human erythrocytes by selected peptides (average and s.d. of 3 replicates). (G) Cytoxicity of Colpeptin1 to human HeLa cells measured by CellTiter Blue assay (average and s.d. of 3 replicates) and (H) by LDH release assay (average and s.d. of 3 replicates). […] Data are from a single experiment that was replicated 3 times (J) Histogram of the size distribution of particles calculated from the DLS data recorded of freshly dissolved colpeptin1 using a linear polymer as particle model. […] (M) Fluorescence intensity of the amyloid-specific dye pFTAA added to preparation of colpeptin1, normalised to the intensity observed with amyloid fibrils of the Alzheimer beta-peptide at the same concentration in monomeric units (average and s.d. of 3 replicates). […] (0) Aggregation kinetics of Colpeptin1 monitored by pFTAA fluorescence in the presence of 1 mM hexaphosphate (average and s.d. of 4 replicates). […]

Data set [2] in a line: In vitro haemolytic activity test. In kind it is cell-based. To be noted: human erythrocytes; read-out: LC50, concentration at which the peptide induces 50% lysis of human erythrocytes. How it is done: The hemolytic activities of peptides were determined by hemolysis against human erythrocytes. Pooled fresh blood was obtained and erythrocytes were collected by centrifugation 3000 rpm for 5 minutes (Anticoagulated by EDTAK) (Cristina et al. 2015). The pellet was washed three times with PBS and was diluted to a concentration of 8% in PBS. 100 μL of 8% Red blood cells solution was mixed with 100 μL of serial dilutions of peptides in PBS buffer in 96 well plates (BD Biosciences). The reaction mixtures were incubated for 1 h at 37° C. Thereupon, the plate was centrifuged for 10 minutes at 3000 rpm and 100 μL of supernatant was transferred to a sterilized 96-well plate (flat bottom). The release of hemoglobin was determined by measuring the absorbance of the supernatant at 405 nm. […] Erythrocytes in 1% Triton and Max used concentration of vehicle were used as control of 100% and 0% hemolysis, respectively.

The subject of the next data set is HeLa cells. In words: In vitro mammalian cytotoxicity (LDH release, CellTiter Blue). In kind it is cell-based, human. How it is done: Mammalian cytotoxicity was measured using the LDH release (Roche, Mannheim, Germany) and CellTiter Blue (Promega) methods. Briefly, HeLa cells (obtained from Bart De Strooper lab, tested to be mycoplasma free) were seeded in 96-well round bottom plates at a concentration of 3×10^5 cells/mL in Dulbecco's Modified Eagle's Medium and treated by different concentrations of peptides. Cells treated with 1% Triton™ X-100 and vehicle were considered as positive and negative controls, respectively. Micro-plates were incubated at 37° C., 5% CO2 and 90% humidity for 4 hours. The micro-plate was centrifuged at 1350 rpm for 10 minutes. 100 μL of supernatant was transferred into clear 96-well flat bottom microplates. In order to determine LDH activity in the supernatants, 100 μl reaction mix (catalyst and dye solution) were added to each well and incubated for 30 min at RT in the dark and the LDH reaction was stopped by adding 100 ul of the Stop solution. The absorbances of the samples were measured at 490 nm. The cell viability was calculated using the formula: (exp. value−negative control value)/(positive control value−negative control value)*100. The amount of absorbance is proportional to the number of living cells and corresponds to the cells' metabolic activity.
On the technique in general: Release of lactate dehydrogenase indicates damage to the cell membrane.

With `CC(C)C[C@H](NC(=O)CNC(=O)[C@H](CCCNC(=N)N)NC(=O)[C@@H]1CCCN1C(=O)[C@H](CCCNC(=N)N)NC(=O)[C@H](CCCNC(=N)N)NC(=O)[C@@H](NC(=O)[C@H](CC(C)C)NC(=O)[C@H](C)NC(=O)[C@H](CC(C)C)NC(=O)CNC(=O)[C@H](CC(C)C)NC(=O)CNC(=O)[C@@H](N)CCCNC(=N)N)C(C)C)C(=O)NCC(=O)N[C@@H](CC(C)C)C(=O)N[C@@H](C)C(=O)N[C@@H](CC(C)C)C(=O)N[C@H](C(=O)N[C@@H](CCCNC(=N)N)C(=O)N[C@@H](CCCNC(=N)N)C(=O)O)C(C)C` [Peptide P2] (H-RGLGLALVRRPRGLGLALVRR-OH), the “peptide remaining in solution” value in data set [1] is reported as “less than 60%”. The HC50 at 1 h in data set [2] came to 1100 µg/mL. Also, the “toxicity towards mammalian cells” value in the data set with HeLa cells is recorded as “little or no toxicity towards mammalian cells”.
